In ChEMBL document CHEMBL6153042, “Glycoconjugates of adefovir and tenofovir as asialoglycoprotein-mediated Anti-HBV prodrugs with enhanced liver targeting” (Eur J Med Chem, 2025):

Tests used:
[1] = Toxicity in Kunming mouse assessed as effect on body weight at 100 to 200 mg/kg, iv administered once daily for 5 days; assay type: organism-based; conditions: in vivo, 120 h, dose 100-200 mg/kg, time 5 day
[2] = test system: LX-2; experiment: Cytotoxicity against human LX2 cells at 5 uM incubated for 48 hrs by CCK8 assay; assay type: toxicity, cell-based; conditions: lx-2, 48 h
[3] = Toxicity in Kunming mouse assessed as maximum tolerated dose administered intravenously as once daily dose for 5 days; conditions: in vivo, route iv, time 5 day
[4] = Toxicity in Kunming mouse assessed as effect on liver weight at 100 to 200 mg/kg, iv once daily for 5 days; assay type: organism-based; conditions: in vivo, 120 h, dose 100-200 mg/kg, time 5 day
[5] = Selectivity index, the ratio of CC50 for human HepG2.2.15 cells to EC50 for antiviral activity against HBV in human HepG2.2.15 cells assessed as inhibition of HBV DNA replication; assay type: toxicity, cell-based; conditions: read-out: Ratio CC50/EC50
[6] = test system: LX-2; experiment: (§1) Cytotoxicity against human LX2 cells assessed as cell growth inhibition at 10 uM incubated for 48 hrs by CCK8 assay relative to control; assay type: toxicity, cell-based; conditions: lx-2, 48 h, 10 µM
[7] = Stability of compound in PBS buffer assessed as half-life by high-performance liquid chromatography; assay type: physicochemical
[8] = Drug metabolism in plasma of Sprague-Dawley rat assessed as (1-(36-(((2R,3R,4S,5R,6R)-3-acetamido-4,5-dihydroxy-6-(hydroxymethyl)tetrahydro-2H-pyran-2-yl)oxy)-21,21-bis((3-((3-(5-(((2R,3R,4S,5R,6R)-3-acetamido-4,5-dihydroxy-6-(hydroxymethyl)tetrahydro-2H-pyran-2-yl)oxy)pentanamido)propyl)amino)-3-oxopropoxy)methyl)-16,19,26,32-tetraoxo-3,6,9,12,23-pentaoxa-15,20,27,31-tetraazahexatriacontyl)-1H-1,2,3-triazol-4-yl)methyl hydrogen ((2-(6-amino-9H-purin-9-yl)ethoxy)methyl)phosphonate formation measured at 2.1 mins by HPLC analysis; assay type: ADME, cell-free; conditions: 0.035 h
[9] = Drug uptake in Sprague-Dawley rat liver at 10 mg/kg, iv measured after 1 to 6 hrs by LC-MS/MS analysis; assay type: ADME, organism-based; conditions: in vivo, time 1-6 hrs
[10] = Toxicity in Kunming mouse assessed as effect on heart colour at 100 to 200 mg/kg, iv once daily for 5 days; assay type: organism-based; conditions: in vivo, 120 h, dose 100-200 mg/kg, time 5 day
[11] = Toxicity in Kunming mouse assessed as histopathological changes in kidney at 200 mg/kg, iv once daily for 5 days by H and E staining based analysis; assay type: organism-based; conditions: in vivo, 120 h, time 5 day
[12] = test system: Hepatitis B virus; experiment: Antiviral activity against Hepatitis B virus infected in human HepG2.2.15 cells assessed as inhibition of HBV DNA replication incubated for 10 day by qPCR analysis; assay type: functional, organism-based; conditions: HepG2.2.15, 240 h
[13] = Toxicity in Kunming mouse assessed as effect on heart weight at 100 to 200 mg/kg, iv once daily for 5 days; assay type: organism-based; conditions: in vivo, 120 h, dose 100-200 mg/kg, time 5 day
[14] = Toxicity in Kunming mouse assessed as histopathological changes in heart at 200 mg/kg, iv once daily for 5 days by H and E staining based analysis; assay type: organism-based; conditions: in vivo, 120 h, time 5 day
[15] = Toxicity in Kunming mouse assessed as effect on kidney colour at 100 to 200 mg/kg, iv once daily for 5 days; assay type: organism-based; conditions: in vivo, 120 h, dose 100-200 mg/kg, time 5 day
[16] = Toxicity in Kunming mouse assessed as effect on liver colour at 100 to 200 mg/kg, iv once daily for 5 days; assay type: organism-based; conditions: in vivo, 120 h, dose 100-200 mg/kg, time 5 day
[17] = Cytotoxicity against human HepG2.2.15 cells assessed as inhibition of cell proliferation by CCK8 assay; assay type: toxicity, cell-based, HepG2 2.2.15
[18] = Toxicity in Kunming mouse assessed as effect on kidney size at 100 to 200 mg/kg, iv once daily for 5 days; assay type: organism-based; conditions: in vivo, 120 h, dose 100-200 mg/kg, time 5 day
[19] = Toxicity in Kunming mouse assessed as effect on liver size at 100 to 200 mg/kg, iv once daily for 5 days; assay type: organism-based; conditions: in vivo, 120 h, dose 100-200 mg/kg, time 5 day
[20] = Toxicity in Kunming mouse assessed as effect on kidney weight at 100 to 200 mg/kg, iv once daily for 5 days; assay type: organism-based; conditions: in vivo, 120 h, dose 100-200 mg/kg, time 5 day
[21] = Toxicity in Kunming mouse assessed as histopathological changes in liver at 200 mg/kg, iv once daily for 5 days by H and E staining based analysis; assay type: organism-based; conditions: in vivo, 120 h, time 5 day
[22] = Toxicity in Kunming mouse assessed as effect on heart size at 100 to 200 mg/kg, iv once daily for 5 days; assay type: organism-based; conditions: in vivo, 120 h, dose 100-200 mg/kg, time 5 day
[23] = Drug metabolism in plasma of Sprague-Dawley rat assessed as hydrolyzed metabolite formation measured after 5 hrs by HPLC analysis; assay type: ADME, cell-free
[24] = Prodrug release in human HepG2 cells assessed as tenofovir release measured over 1 hrs by HPLC analysis; assay type: ADME, cell-based; conditions: hepg2, 1 h
[25] = Prodrug release in human HepG2 cells assessed as adefovir release measured over 1 hrs by HPLC analysis; assay type: ADME, cell-based; conditions: hepg2, 1 h
[26] = Prodrug release in human HepG2 cells assessed as adefovir release by mass spectrometric analysis; assay type: ADME, cell-based
[27] = Prodrug release in human HepG2 cells assessed as tenofovir release by mass spectrometric analysis; assay type: ADME, cell-based
[28] = as §1; assay type: toxicity, cell-based, LX-2; conditions: LX2 cells, read-out: GI
[29] = Drug uptake in Sprague-Dawley rat kidney at 10 mg/kg, iv measured after 1 to 6 hrs by LC-MS/MS analysis; assay type: ADME, organism-based; conditions: in vivo, time 1-6 hrs

For CC(=O)N[C@H]1[C@H](OCCCCC(=O)NCCCNC(=O)CCOCC(COCCC(=O)NCCCNC(=O)CCCCO[C@@H]2O[C@H](CO)[C@H](O)[C@@H](O)[C@H]2NC(C)=O)(COCCC(=O)NCCCNC(=O)CCCCO[C@@H]2O[C@H](CO)[C@H](O)[C@@H](O)[C@H]2NC(C)=O)NC(=O)CCC(=O)NCCOCCOCCOCCOCCn2cc(COP(=O)(COCCn3cnc4c(N)ncnc43)OCOC(=O)C(C)(C)C)nn2)O[C@H](CO)[C@H](O)[C@H]1O (some centres undefined), the Activity [1] was “Non-toxic”, the Activity [2] was “Toxic” and the MTD at 120 h [3] was roughly 200 mg/kg. The Activity [4] was “Non-toxic”, the selectivity ratio [5] was greater than 1020 and the Activity [6] was “Toxic”. The half-life [7] was greater than 24 h, the Drug metabolism [8] was “metabolite_detected” and the Drug uptake [9] was “Active”. For the same molecule, the Activity [10] was “Non-toxic”, the Activity [11] was “Non-toxic” and the EC50 [12] was 98.3 nM. For the same molecule, the Activity [13] was “Non-toxic”, the Activity [14] was “Non-toxic” and the Activity [15] was “Non-toxic”. For the same molecule, the Activity [16] was “Non-toxic”, the CC50 [17] was greater than 100000 nM and the Activity [18] was “Non-toxic”. For the same molecule, the Activity [19] was “Non-toxic”, the Activity [20] was “Non-toxic” and the Activity [21] was “Non-toxic”. The Activity [22] was “Non-toxic”.
With CC(=O)N[C@H]1[C@H](OCCCCC(=O)NCCCNC(=O)CCOCC(COCCC(=O)NCCCNC(=O)CCCCO[C@@H]2O[C@H](CO)[C@H](O)[C@@H](O)[C@H]2NC(C)=O)(COCCC(=O)NCCCNC(=O)CCCCO[C@@H]2O[C@H](CO)[C@H](O)[C@@H](O)[C@H]2NC(C)=O)NC(=O)CCC(=O)NCCOCCOCCOCCOCCn2cc(COP(=O)(O)CO[C@H](C)Cn3cnc4c(N)ncnc43)nn2)O[C@H](CO)[C@H](O)[C@H]1O (racemic) the Drug metabolism [23] was “metabolite_notdetected”, the Drug metabolism [24] was “metabolite_detected” and the Drug metabolism [25] was “metabolite_detected”. For the same molecule, the Drug metabolism [26] was “metabolite_detected” and the Drug metabolism [27] was “metabolite_detected”.
For CC(C)(C)C(=O)OCOP(=O)(COCCn1cnc2c(N)ncnc21)OCOC(=O)C(C)(C)C [ADEFOVIR DIPIVOXIL], the Activity [2] was “Non-toxic”, the selectivity ratio [5] was 44.6 and the inhibition at 48 h, 10 µM [28] was roughly 30%. The Drug uptake [29] was “Active”, the EC50 [12] was 240 nM and the CC50 [17] was 10700 nM.
In the case of CC(C)OC(=O)OCOP(=O)(CO[C@H](C)Cn1cnc2c(N)ncnc21)OCOC(=O)OC(C)C.O=C(O)/C=C/C(=O)O [TENOFOVIR DISOPROXIL FUMARATE], the Activity [2] is reported as “Non-toxic”, the selectivity ratio [5] is reported as 43.7 and the inhibition at 48 h, 10 µM [28] is reported as roughly 30%. The Drug uptake [29] was “Active”, the EC50 [12] was 188 nM and the CC50 [17] was 8200 nM.
